# US20220168201A1, “USE OF DIANHYDROHEXITOL FOR PRESERVING COSMETIC PREPARATIONS” (ROQUETTE FRERES, priority 2019, published 2022)
# Tests used:
# [1] = system: Candida albicans; conditions: U.S. Pat. No. 9,295,626, col. 27, Table 2; cited from earlier work
# [2] = system: Aspergillus brasiliensis; conditions: U.S. Pat. No. 9,295,626, col. 27, Table 2; cited from earlier work
# [3] = system: Propionobacterium acnes; test: In-vitro effect on microbial strains: population count over 28 days, Propionobacterium acnes; type: cell-based; conditions: for Number of colony-forming strains after: 24 h / Number of colony-forming strains after: 7 days / Number of colony-forming strains after: 14 days / Number of colony-forming strains after: 21 days / Number of colony-forming strains after: 28 days: inoculum 3.98 × 10^5, 22° C.
# Experimental: (§1) The samples are prepared under sterile conditions and deposited in microplates (2-ml wells) with the concentrations hereunder. Two analysis controls were carried out: • a positive control corresponding to 0.5% Phenonip®; • a negative control consisting of 0.85% physiological saline solution. Samples and controls are contaminated with three bacterial strains, namely Staphylococcus epidermidis, Corynebacterium xerosis, and Propionobacterium acnes, at a rate of approximately […] to 4.15×10^5 colony-forming units per milliliter, denoted cfu/ml; and a fungal strain, namely Malassezia furfur, at a rate of approximately 1.50×104 to 3.80×10^4 cfu/ml. After contamination, the samples are carefully mixed by suction and discharge cycles in order to ensure a uniform distribution of the microorganism. The whole is incubated at 22° C. during 28 days. The microbial population is sampled and counted at 24 hours and 7, 14, 21 and 28 days for each microbial strain. The contaminated samples are collected and then deposited in serial dilutions in microtiter plates, in the presence of culture medium, which is a saline solution with 0.85% sodium chloride, and a dehydrogenase activity indicator reagent, which is 2,3,5-triphenyltetrazolium chloride (denoted TTC). The results are presented in the following pages with the variation of the microbial population over the 28 days of study, for the tested microbial strain. The measurements of microbial populations in the samples collected at each time, are carried out according to the following microtiter method, for one sample collection. In the 96 wells with a volume of 250 μL of a microtiter plate, 20 μL of the collected sample are diluted by a factor of 10 by dispersion in 180 μL of Letheen broth (Difco, ref. 268110) containing 1.5% of Tween 80 (Sigma, ref. […]) and TTC (Sigma, ref. […]). The microplate is incubated for 48 hours at 32.5° C., and the growth of the microorganisms is monitored by the color change, from colorless to red/pink. The highest reciprocal dilution indicating a growth makes it possible to determine the log number of each microorganism at each time. The measurements of microbial populations taken at each collection time are expressed as colony forming units/ml.
# [4] = system: Malassezia furfur; test: In-vitro effect on microbial strains: population count over 28 days, Malassezia furfur; type: cell-based; conditions: for Number of colony-forming strains after: 24 h / Number of colony-forming strains after: 7 days / Number of colony-forming strains after: 14 days / Number of colony-forming strains after: 21 days / Number of colony-forming strains after: 28 days: inoculum 1.5 × 10^4, 22° C.
# Experimental: as §1
# [5] = system: Corynebacterium xerosis; test: In-vitro effect on microbial strains: population count over 28 days, Corynebacterium xerosis; type: cell-based; conditions: for Number of colony-forming strains after: 24 h / Number of colony-forming strains after: 7 days / Number of colony-forming strains after: 14 days / Number of colony-forming strains after: 21 days / Number of colony-forming strains after: 28 days: inoculum 3.2 × 10^5, 22° C.
# Experimental: as §1
# [6] = system: Staphylococcus epidermidis; test: In-vitro effect on microbial strains: population count over 28 days, Staphylococcus epidermidis; type: cell-based; conditions: for Number of colony-forming strains after: 24 h / Number of colony-forming strains after: 7 days / Number of colony-forming strains after: 14 days / Number of colony-forming strains after: 21 days / Number of colony-forming strains after: 28 days: inoculum 1.43 × 10^5, 22° C.
# Experimental: as §1
# [7] = system: Staphylococcus aureus; conditions: U.S. Pat. No. 9,295,626, col. 27, Table 2; cited from earlier work
# [8] = after 24 hours, doses 1%, 5%, 9%
# [9] = after 24 hours, the three doses tested (1%, 5%, 9%)
smiles,measurement,setting,value
"O[C@@H]1CO[C@H]2[C@@H]1OC[C@@H]2O [isosorbide, 1,4-3,6-dianhydrosorbitol]",minimum inhibitory concentration,[1],10%
same,minimum inhibitory concentration,[2],10%
same,colony-forming strains observed,[3]; [8],no colony-forming strain is observed
same,Number of colony-forming strains after: 24 h,[3]; isosorbide dose 1%,0 colony forming units/ml
same,Number of colony-forming strains after: 7 days,[3]; isosorbide dose 1%,0 colony forming units/ml
same,Number of colony-forming strains after: 14 days,[3]; isosorbide dose 1%,0 colony forming units/ml
same,Number of colony-forming strains after: 21 days,[3]; isosorbide dose 1%,0 colony forming units/ml
same,Number of colony-forming strains after: 28 days,[3]; isosorbide dose 1%,0 colony forming units/ml
same,Number of colony-forming strains after: 24 h,[3]; isosorbide dose 5%,0 colony forming units/ml
same,Number of colony-forming strains after: 7 days,[3]; isosorbide dose 5%,0 colony forming units/ml
same,Number of colony-forming strains after: 14 days,[3]; isosorbide dose 5%,0 colony forming units/ml
same,Number of colony-forming strains after: 21 days,[3]; isosorbide dose 5%,0 colony forming units/ml
same,Number of colony-forming strains after: 28 days,[3]; isosorbide dose 5%,0 colony forming units/ml
same,Number of colony-forming strains after: 24 h,[3]; isosorbide dose 9%,0 colony forming units/ml
same,Number of colony-forming strains after: 7 days,[3]; isosorbide dose 9%,0 colony forming units/ml
same,Number of colony-forming strains after: 14 days,[3]; isosorbide dose 9%,0 colony forming units/ml
same,Number of colony-forming strains after: 21 days,[3]; isosorbide dose 9%,0 colony forming units/ml
same,Number of colony-forming strains after: 28 days,[3]; isosorbide dose 9%,0 colony forming units/ml
same,effect on the strain in words,[3]; summary of Table 1,bactericide
same,colony-forming strains observed,[4]; [8],no colony-forming strain is observed
same,Number of colony-forming strains after: 24 h,[4]; isosorbide dose 1%,0 colony forming units/ml
same,Number of colony-forming strains after: 7 days,[4]; isosorbide dose 1%,0 colony forming units/ml
same,Number of colony-forming strains after: 14 days,[4]; isosorbide dose 1%,0 colony forming units/ml
same,Number of colony-forming strains after: 21 days,[4]; isosorbide dose 1%,0 colony forming units/ml
same,Number of colony-forming strains after: 28 days,[4]; isosorbide dose 1%,0 colony forming units/ml
same,Number of colony-forming strains after: 24 h,[4]; isosorbide dose 5%,0 colony forming units/ml
same,Number of colony-forming strains after: 7 days,[4]; isosorbide dose 5%,0 colony forming units/ml
same,Number of colony-forming strains after: 14 days,[4]; isosorbide dose 5%,0 colony forming units/ml
same,Number of colony-forming strains after: 21 days,[4]; isosorbide dose 5%,0 colony forming units/ml
same,Number of colony-forming strains after: 28 days,[4]; isosorbide dose 5%,0 colony forming units/ml
same,Number of colony-forming strains after: 24 h,[4]; isosorbide dose 9%,0 colony forming units/ml
same,Number of colony-forming strains after: 7 days,[4]; isosorbide dose 9%,0 colony forming units/ml
same,Number of colony-forming strains after: 14 days,[4]; isosorbide dose 9%,0 colony forming units/ml
same,Number of colony-forming strains after: 21 days,[4]; isosorbide dose 9%,0 colony forming units/ml
same,Number of colony-forming strains after: 28 days,[4]; isosorbide dose 9%,0 colony forming units/ml
same,effect on the strain in words,[4]; summary of Table 2,bactericide
same,reduction of the number of colony-forming strains,[5]; [9],at least 3 log 10
same,colony-forming strains observed,[5]; after 7 days,no more colony-forming strains
same,Number of colony-forming strains after: 24 h,[5]; isosorbide dose 1%,4 × 10^2 colony forming units/ml
same,Number of colony-forming strains after: 7 days,[5]; isosorbide dose 1%,0 colony forming units/ml
same,Number of colony-forming strains after: 14 days,[5]; isosorbide dose 1%,0 colony forming units/ml
same,Number of colony-forming strains after: 21 days,[5]; isosorbide dose 1%,0 colony forming units/ml
same,Number of colony-forming strains after: 28 days,[5]; isosorbide dose 1%,0 colony forming units/ml
same,Number of colony-forming strains after: 24 h,[5]; isosorbide dose 5%,1 × 10^2 colony forming units/ml
same,Number of colony-forming strains after: 7 days,[5]; isosorbide dose 5%,0 colony forming units/ml
same,Number of colony-forming strains after: 14 days,[5]; isosorbide dose 5%,0 colony forming units/ml
same,Number of colony-forming strains after: 21 days,[5]; isosorbide dose 5%,0 colony forming units/ml
same,Number of colony-forming strains after: 28 days,[5]; isosorbide dose 5%,0 colony forming units/ml
same,Number of colony-forming strains after: 7 days,[5]; isosorbide dose 9%,0 colony forming units/ml
same,Number of colony-forming strains after: 14 days,[5]; isosorbide dose 9%,0 colony forming units/ml
same,Number of colony-forming strains after: 21 days,[5]; isosorbide dose 9%,0 colony forming units/ml
same,Number of colony-forming strains after: 28 days,[5]; isosorbide dose 9%,0 colony forming units/ml
same,effect on the strain in words,[5]; summary of Table 3,moderate bactericide
same,reduction of the number of colony-forming strains,[6]; [9],at least 2 log 10
same,colony-forming strains observed,[6]; after 7 days,no more colony-forming strains
same,Number of colony-forming strains after: 24 h,[6]; isosorbide dose 1%,4 × 10^3 colony forming units/ml
same,Number of colony-forming strains after: 7 days,[6]; isosorbide dose 1%,0 colony forming units/ml
same,Number of colony-forming strains after: 14 days,[6]; isosorbide dose 1%,0 colony forming units/ml
same,Number of colony-forming strains after: 21 days,[6]; isosorbide dose 1%,0 colony forming units/ml
same,Number of colony-forming strains after: 28 days,[6]; isosorbide dose 1%,0 colony forming units/ml
same,Number of colony-forming strains after: 24 h,[6]; isosorbide dose 5%,1 × 10^3 colony forming units/ml
same,Number of colony-forming strains after: 7 days,[6]; isosorbide dose 5%,0 colony forming units/ml
same,Number of colony-forming strains after: 14 days,[6]; isosorbide dose 5%,0 colony forming units/ml
same,Number of colony-forming strains after: 21 days,[6]; isosorbide dose 5%,0 colony forming units/ml
same,Number of colony-forming strains after: 28 days,[6]; isosorbide dose 5%,0 colony forming units/ml
same,Number of colony-forming strains after: 24 h,[6]; isosorbide dose 9%,7 × 10^2 colony forming units/ml
same,Number of colony-forming strains after: 7 days,[6]; isosorbide dose 9%,0 colony forming units/ml
same,Number of colony-forming strains after: 14 days,[6]; isosorbide dose 9%,0 colony forming units/ml
same,Number of colony-forming strains after: 21 days,[6]; isosorbide dose 9%,0 colony forming units/ml
same,Number of colony-forming strains after: 28 days,[6]; isosorbide dose 9%,0 colony forming units/ml
same,effect on the strain in words,[6]; summary of Table 4,weak bactericide
same,minimum inhibitory concentration,[7],10%
